Values after ≈ are worked out from the molar mass of the structure shown.
Legend:
[1] = Bocillin-FL fluorescence polarization competition binding assay, A. baumannii PBP3; settings: fluorescence polarization competition binding assay using Bocillin-FL; column 3; read-out: 4. baumannii PBP1a Potency
Method in brief: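 A. baumannii PBP2 (2.5 μM) and PBP3 (0.2 μM) were run in 25 mM Tris pH 8.0 buffer with Tween 20; E. coli PBP3 (1.5 μM) and N. gonorrhoeae PBP2 ([…]) in 50 mM Hepes pH 8.0 buffer.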

[2] = biological target: T1, P. aeruginosa PBP3 (Pseudomonas aeruginosa, UniProt G3XD46); assay: Bocillin-FL fluorescence polarization competition binding assay, P. aeruginosa PBP3; settings: fluorescence polarization competition binding assay using Bocillin-FL
T1 construct: made in house
Method in brief: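 Inhibitor competition with Bocillin-FL for P. aeruginosa PBP3 was followed by fluorescence polarization on a Cytation3 (BioTek) reader, using g-factor 0.96, 490 nm excitation and 520 nm emission. The enzyme was at 0.75 μM and the probe at 0.1 μM in Hepes/NaCl/glycerol buffer, 80 μl per well. FP was recorded immediately after probe addition for up to 60 minutes. Potency was expressed as EC50, the concentration that reduces bound probe by 50%.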

[3] = tested on: N. gonorrhoeae WHO Q; assay: Liquid broth MIC in Fastidious broth; type: cell-based; settings: Neisseria gonorrhoeae, read-out: Minimum Inhibitory Concentration, N. gonorrhoeae WHO Q
Method in brief: (§1)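 Strains bearing mosaic PBP2 grown 24 h on chocolate agar (36° C, 5% CO2), suspended in saline and added to 2-fold compound dilutions in Fastidious broth at 5×10^5 CFU/mL. After ~24 hours at 36° C with 5% CO2, MIC taken visually as lowest well with <10% growth relative to full growth.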

[4] = tested on: N. gonorrhoeae WHO Z; assay: Liquid broth MIC in Fastidious broth; type: cell-based; settings: Neisseria gonorrhoeae, read-out: Minimum Inhibitory Concentration, N. gonorrhoeae WHO Z
Method in brief: as §1

T1 sequence (G3XD46 whole entry): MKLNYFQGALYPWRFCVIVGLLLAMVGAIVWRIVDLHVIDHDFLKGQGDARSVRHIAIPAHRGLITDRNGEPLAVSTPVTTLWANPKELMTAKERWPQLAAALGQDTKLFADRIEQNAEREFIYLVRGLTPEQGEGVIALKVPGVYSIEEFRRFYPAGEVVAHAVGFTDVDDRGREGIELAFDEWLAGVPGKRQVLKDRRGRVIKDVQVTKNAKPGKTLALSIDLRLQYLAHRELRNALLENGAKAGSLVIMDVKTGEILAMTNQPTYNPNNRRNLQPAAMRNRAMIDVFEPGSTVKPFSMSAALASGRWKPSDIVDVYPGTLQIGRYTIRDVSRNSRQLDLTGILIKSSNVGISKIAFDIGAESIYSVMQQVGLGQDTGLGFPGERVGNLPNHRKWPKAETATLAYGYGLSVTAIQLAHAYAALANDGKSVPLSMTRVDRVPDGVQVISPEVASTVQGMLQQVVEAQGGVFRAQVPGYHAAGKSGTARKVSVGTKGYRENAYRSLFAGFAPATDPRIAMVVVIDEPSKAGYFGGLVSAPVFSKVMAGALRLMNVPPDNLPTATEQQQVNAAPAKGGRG

Row | Structure (SMILES) | EC50 [1] | P. aeruginosa PBP3 Potency [2] | MIC [3] | MIC [4]
1 | NCCN1CCN(C(=O)N[C@@H](C(=O)N[C@H]2Cc3ccc(F)c(C(=O)O)c3OB2O)c2c(F)cc(O)c(O)c2Cl)C(=O)C1=O (single isomer, unassigned) [Example 26] | 30 to 100 µM | D (D represents a potency <10 μM) |  | 
2 | NCCCN1CCN(C(=O)N[C@@H](C(=O)N[C@H]2Cc3ccc(F)c(C(=O)O)c3OB2O)c2c(F)cc(O)c(O)c2Cl)C(=O)C1=O (single isomer, unassigned) [Example 27] | 30 to 100 µM | D (D represents a potency <10 μM) |  | 
3 | O=C(O)c1c(F)ccc2c1OB(O)[C@@H](NC(=O)[C@H](NC(=O)N1CCNC1=O)c1c(F)cc(O)c(O)c1Cl)C2 (single isomer, unassigned) [Example 34] | > 100 µM | D (D represents a potency <10 μM) |  | 
4 | CS(=O)(=O)N1CCN(C(=O)N[C@@H](C(=O)N[C@H]2Cc3ccc(F)c(C(=O)O)c3OB2O)c2c(F)cc(O)c(O)c2Cl)C1=O (single isomer, unassigned) [Example 35] | 30 to 100 µM | D (D represents a potency <10 μM) |  | 
5 | NCCN1CCN(C(=O)N[C@@H](C(=O)N[C@H]2Cc3ccc(F)c(C(=O)O)c3OB2O)c2c(F)cc(O)c(O)c2F)C(=O)C1=O (single isomer, unassigned) [Example 40] | > 100 µM | D (D represents a potency <10 μM) |  | 
6 | NCCCN1CCN(C(=O)N[C@@H](C(=O)N[C@H]2Cc3ccc(F)c(C(=O)O)c3OB2O)c2c(F)cc(O)c(O)c2F)C(=O)C1=O (single isomer, unassigned) [Example 41] | 30 to 100 µM | D (D represents a potency <10 μM) |  | 
7 | O=C(O)c1ccc(C(NC(=O)c2ccc(O)c(O)c2Cl)C(=O)N[C@H]2Cc3cccc(C(=O)O)c3OB2O)cc1F (stereo partly drawn) [Example 7, (3R)-3-(2-(4-carboxy-3-fluorophenyl)-2-(2-chloro-3,4-dihydroxybenzamido)acetamido)-2-hydroxy-3,4-dihydro-2H-benzo[e][1,2]oxaborinine-8-carboxylic acid] | > 100 µM | D (D represents a potency <10 μM) |  | 
8 | O=C(NC(C(=O)N[C@H]1Cc2ccc(F)c(C(=O)O)c2OB1O)c1ncc(O)cc1F)c1ccc(O)c(O)c1Cl (stereo partly drawn) [Example 8, (3R)-3-(2-(2-chloro-3,4-dihydroxybenzamido)-2-(3-fluoro-5-hydroxypyridin-2-yl)acetamido)-7-fluoro-2-hydroxy-3,4-dihydro-2H-benzo[e][1,2]oxaborinine-8-carboxylic acid] | > 100 µM | D (D represents a potency <10 μM) |  | 
9 | O=C(Nc1ccc(O)c(O)c1Cl)NC(C(=O)N[C@H]1Cc2ccc(F)c(C(=O)O)c2OB1O)c1ncc(O)cc1F (stereo partly drawn) [Example 9, (3R)-3-(2-(3-(2-chloro-3,4-dihydroxyphenyl)ureido)-2-(3-fluoro-5-hydroxypyridin-2-yl)acetamido)-7-fluoro-2-hydroxy-3,4-dihydro-2H-benzo[e][1,2]oxaborinine-8-carboxylic acid] | 30 to 100 µM | D (D represents a potency <10 μM) |  | 
10 | O=C(O)c1c(F)ccc2c1OB(O)[C@@H](NC(=O)C(NC(=O)N1CCN(CCBr)C(=O)C1=O)c1c(F)cc(O)c(O)c1F)C2 (stereo partly drawn) [Example 38, (3R)-3-(2-(4-(2-bromoethyl)-2,3-dioxopiperazine-1-carboxamido)-2-(2,6-difluoro-3,4-dihydroxyphenyl)acetamido)-7-fluoro-2-hydroxy-3,4-dihydro-2H-benzo[e][1,2]oxaborinine-8-carboxylic acid] | 10 to 30 µM |  |  | 
11 | CCN1CCN(C(=O)NC(C(=O)N[C@H]2Cc3cccc(C(=O)O)c3OB2O)c2cc(O)ccc2O)C(=O)C1=O (stereo partly drawn) [Example 77, (3R)-3-(2-(2,5-dihydroxyphenyl)-2-(4-ethyl-2,3-dioxopiperazine-1-carboxamido)acetamido)-2-hydroxy-3,4-dihydro-2H-benzo[e][1,2]oxaborinine-8-carboxylic acid] |  | B (B represents a potency between 30 μM and 500 μM inclusive) | > 64 µg/mL | > 64 µg/mL
12 | N=C(N)NCCN1CCN(C(=O)NC(C(=O)N[C@H]2Cc3ccc(F)c(C(=O)O)c3OB2O)c2ccc(C(=O)O)c(F)c2)C(=O)C1=O (stereo partly drawn) [Example 78, (3R)-3-(2-(4-carboxy-3-fluorophenyl)-2-(4-(2-guanidinoethyl)-2,3-dioxopiperazine-1-carboxamido)acetamido)-7-fluoro-2-hydroxy-3,4-dihydro-2H-benzo[e][1,2]oxaborinine-8-carboxylic acid] |  | D (D represents a potency <10 μM) | > 64 µg/mL | 16 to 32 µg/mL (≈ 24.8 to 49.6 µM)
13 | NCCN1CCN(C(=O)NC(C(=O)N[C@H]2Cc3cccc(C(=O)O)c3OB2O)c2cc(Cl)c(O)cc2F)C(=O)C1=O (stereo partly drawn) [Example 87, (3R)-3-(2-(4-(2-aminoethyl)-2,3-dioxopiperazine-1-carboxamido)-2-(5-chloro-2-fluoro-4-hydroxyphenyl)acetamido)-2-hydroxy-3,4-dihydro-2H-benzo[e][1,2]oxaborinine-8-carboxylic acid] |  | D (D represents a potency <10 μM) | > 64 µg/mL | > 64 µg/mL
14 | NCCN1CCN(C(=O)N[C@@H](C(=O)N[C@H]2Cc3cccc(C(=O)O)c3OB2O)c2cc(Cl)c(O)cc2Cl)C(=O)C1=O [Example 90, (R)-3-((R)-2-(4-(2-aminoethyl)-2,3-dioxopiperazine-1-carboxamido)-2-(2,5-dichloro-4-hydroxyphenyl)acetamido)-2-hydroxy-3,4-dihydro-2H-benzo[e][1,2]oxaborinine-8-carboxylic acid] |  | D (D represents a potency <10 μM) | > 64 µg/mL | > 64 µg/mL
15 | NCCN1CCN(C(=O)NC(C(=O)N[C@H]2Cc3cccc(C(=O)O)c3OB2O)c2cc(F)c(O)cc2F)C(=O)C1=O (stereo partly drawn) [Example 93, (3R)-3-(2-(4-(2-aminoethyl)-2,3-dioxopiperazine-1-carboxamido)-2-(2,5-difluoro-4-hydroxyphenyl)acetamido)-2-hydroxy-3,4-dihydro-2H-benzo[e][1,2]oxaborinine-8-carboxylic acid] |  | D (D represents a potency <10 μM) | > 64 µg/mL | > 64 µg/mL
16 | CCN1CCN(C(=O)NC(C(=O)N[C@H]2Cc3cccc(C(=O)O)c3OB2O)c2c(F)cc(O)cc2Cl)C(=O)C1=O (stereo partly drawn) [Example 95, (3R)-3-(2-(2-chloro-6-fluoro-4-hydroxyphenyl)-2-(4-ethyl-2,3-dioxopiperazine-1-carboxamido)acetamido)-2-hydroxy-3,4-dihydro-2H-benzo[e][1,2]oxaborinine-8-carboxylic acid] |  | D (D represents a potency <10 μM) | 16 to 32 µg/mL (≈ 27.7 to 55.5 µM) | 16 to 32 µg/mL (≈ 27.7 to 55.5 µM)
17 | CCN1CCN(C(=O)NC(C(=O)N[C@H]2Cc3cccc(C(=O)O)c3OB2O)c2cccc(NC(=O)c3cncnc3)c2)C(=O)C1=O (stereo partly drawn) [Example 96, (3R)-3-(2-(4-ethyl-2,3-dioxopiperazine-1-carboxamido)-2-(3-(pyrimidine-5-carboxamido)phenyl)acetamido)-2-hydroxy-3,4-dihydro-2H-benzo[e][1,2]oxaborinine-8-carboxylic acid] |  | D (D represents a potency <10 μM) | > 64 µg/mL | > 64 µg/mL
18 | CCN1CCN(C(=O)NC(C(=O)N[C@H]2Cc3cccc(C(=O)O)c3OB2O)c2cccc(NC(=O)c3cccnc3)c2)C(=O)C1=O (stereo partly drawn) [Example 97, (3R)-3-(2-(4-ethyl-2,3-dioxopiperazine-1-carboxamido)-2-(3-(nicotinamido)phenyl)acetamido)-2-hydroxy-3,4-dihydro-2H-benzo[e][1,2]oxaborinine-8-carboxylic acid] |  | D (D represents a potency <10 μM) | > 64 µg/mL | > 64 µg/mL
19 | CCN1CCN(C(=O)NC(C(=O)N[C@H]2Cc3cccc(C(=O)O)c3OB2O)c2cccc(NS(N)(=O)=O)c2)C(=O)C1=O (stereo partly drawn) [Example 98, (3R)-3-(2-(4-ethyl-2,3-dioxopiperazine-1-carboxamido)-2-(3-(sulfamoylamino)phenyl)acetamido)-2-hydroxy-3,4-dihydro-2H-benzo[e][1,2]oxaborinine-8-carboxylic acid] |  | D (D represents a potency <10 μM) | 16 to 32 µg/mL (≈ 26.6 to 53.1 µM) | 16 to 32 µg/mL (≈ 26.6 to 53.1 µM)
20 | CCN1CCN(C(=O)NC(C(=O)N[C@H]2Cc3cccc(C(=O)O)c3OB2O)c2cccc(S(N)(=O)=O)c2)C(=O)C1=O (stereo partly drawn) [Example 99, (3R)-3-(2-(4-ethyl-2,3-dioxopiperazine-1-carboxamido)-2-(3-sulfamoylphenyl)acetamido)-2-hydroxy-3,4-dihydro-2H-benzo[e][1,2]oxaborinine-8-carboxylic acid] |  | D (D represents a potency <10 μM) | 16 to 32 µg/mL (≈ 27.2 to 54.5 µM) | 16 to 32 µg/mL (≈ 27.2 to 54.5 µM)

— US20230114728A1 (Venatorx Pharmaceuticals, Inc., priority 2019, published 2023)
